Laboratory results: ChEMBL document CHEMBL1155637, “Oleanane triterpenes from Junellia tridens” (2000)
In brackets after ≈: the same amount, converted by molar mass.

The compounds below were run on Mycobacterium tuberculosis (assay: Antitubercular activity against Mycobacterium tuberculosis H37Rv ATCC 27294 by BACTEC 460 radiorespirometric assay).
Format: functional

Question: With `CC(C)[C@@H]1CC[C@]2(C)[C@H](CC=C3[C@@H]4CC(C)(C)CC[C@]4(C(=O)O)CC[C@]32C)[C@@]1(C)CCC(=O)O` as the compound, how does the MIC read?
Answer: 128 µg/mL (≈ 271 µM)

Question: Which MIC does the source give for `CC1(C)CC[C@]2(C(=O)O)CC[C@]3(C)C(=CC[C@@H]4[C@@]5(C)CC[C@@H](O)C(C)(C)[C@@H]5CC[C@]43C)[C@@H]2C1` here?
Answer: 16 µg/mL (≈ 35 µM)

Question: Which MIC does the source give for `CC1(C)CC[C@]2(C(=O)O)CC[C@]3(C)C(=C2C1)C=C[C@@H]1[C@@]2(C)CC[C@@H](O)C(C)(C)[C@@H]2CC[C@]13C` here?
Answer: 64 µg/mL (≈ 141 µM)

Question: For `CC1(C)CC[C@@]23CC[C@]4(C)[C@@](C=C[C@@H]5[C@@]6(C)CC[C@@H](O)C(C)(C)[C@@H]6CC[C@]54C)(OC2=O)[C@@H]3C1`, which MIC is on record?
Answer: 64 µg/mL (≈ 141 µM)

Question: With `C=C(C)[C@@H]1CC[C@]2(C(=O)O)CC[C@]3(C)[C@H](CC[C@@H]4[C@@]5(C)CC[C@@H](O)C(C)(C)[C@@H]5CC[C@]43C)[C@@H]12` [EPIBETULINIC ACID] as the compound, how does the MIC read?
Answer: 50 µg/mL (≈ 109 µM)

Question: `CC1(C)CC[C@]2(C(=O)O)CC[C@]3(C)C(=CC[C@@H]4[C@@]5(C)CC[C@H](O)C(C)(C)[C@@H]5CC[C@]43C)[C@@H]2C1` [OLEANOLIC_ACID] was tested. Which MIC did it give?
Answer: 50 µg/mL (≈ 109 µM)

Question: Which MIC does the source give for `CC1(C)CC[C@]2(C(=O)O)CC[C@]3(C)C(=CC[C@@H]4[C@@]5(C)CCC(=O)C(C)(C)[C@@H]5CC[C@]43C)[C@@H]2C1` [OLEANONIC ACID] here?
Answer: 16 µg/mL (≈ 35.2 µM)

Question: Which MIC does the source give for `CO[C@H]1/C=C/O[C@@]2(C)Oc3c(C)c(O)c4c(O)c(c(/C=N/N5CCN(C)CC5)c(O)c4c3C2=O)NC(=O)/C(C)=C\C=C\[C@H](C)[C@H](O)[C@@H](C)[C@@H](O)[C@@H](C)[C@H](OC(C)=O)[C@@H]1C` [RIFAMPIN] here?
Answer: 0.16 µg/mL (≈ 0.194 µM)
